Measured values from US6187800A, “Method for the prevention and treatment of mastitis” (Novartis Animal Health U.S., Inc., priority 1997, dated 2001).

Legend:
Staphylococcus aureus = assay: Efficacy in subclinical bovine mastitis (experimentally infected quarters, intramammary treatment); type: in vivo, cows (bovine); conditions: n = 9
Description: A dairy herd is maintained to supply candidate cows for enrollment in trials. Cows are bought from local cattle dealers. These cows should have a minimal milk production of 15 l/day. Two milk samples are taken one day apart from all quarters for bacteriological examination. No cows from which mastitis pathogens can be recovered are entered into the tests. Non-infected cows are selected based on non recovery of Staphylococcus aureus from two milk samples taken one day apart from all quarters. Then, 3 quarters are inoculated via the intramammary route using a suspension of Staphylococcus aureus. The 4th quarter serves as a control for the milking hygiene routines. During the two to four weeks after inoculation, milk samples are taken from all quarters, at least 3 times. These samples are cultured, and if Staphylococcus aureus is recovered from at least two of them, the quarter is considered infected.
Treatments are assigned randomly to infected quarters and injected via the intramammary route. Milk samples are taken daily until a minimum of 14 days after the last treatment. A quarter is considered to be cured if milk samples from that quarter become negative (i.e., no Staphylococcus aureus can be recovered) within 7 days after the last treatment and stay negative throughout the following 14 day sampling period.
This experimental model is used to have a fixed framework on which to evaluate treatments. To work with Staphylococcus aureus has the advantage that it is the most difficult Gram positive bacterium to treat and one of the most important bacteria causing bovine mastitis. Therefore, cure rates should be expected to be lower than for other Gram positive bacteria, such as Streptococci and coagulase-negative Staphylococci.
The results presented in Table 2 show the percentage of quarters positive for Staphylococcus aureus (i.e., quarters from which Staphylococcus aureus can be recovered) during and after treatment with 3 doses of either placebo, 2 mg micrococcin P1, or 300 mg ampiclox at 12 hour intervals, or 3 doses with 4 mg micrococcin P1 at 48 hour intervals.

Lactobacillus bulgaricus = assay: Acidification of milk from treated cows by lactic fermenting bacteria; type: cell-based; conditions: 3 doses at 12 h
Description: (§1) Acidification is the first and most important step in the manufacturing processes when milk is fermented. If acidification proceeds normally then it is very likely that all other steps will be normal. Therefore one can investigate the effect of different concentrations of micrococcin P1 on the kinetics of acidification of milk by lactic fermenting bacteria.
(§2) Cows that are free from infection with mastitis pathogens, based on bacteriological culture of milk, are enrolled in these trials. Identical treatments are administered to all 4 quarters of an individual cow. Milk from evening milkings is refrigerated at 4° C. overnight to be tested the following morning. Samples of 500 ml are pasteurized by heating to 80° C. in a waterbath and then cooled to room temperature.
(§3) Lyophylised cultures as used in commercial conditions are obtained from Rudolf Wittwer, CH-5002 Rombach, Aarau, Switzerland. These cultures are reconstituted according to manufacturers recommendations and reactivated by passage three times in sterile skimmed milk. Each passage is incubated for 16 to 18 hours at the optimum temperature for the said bacterial strain.
(§4) The culture obtained after the third passage is diluted to 2% with whole sterile (UHT) milk, aliquotted in 10 ml tubes and frozen at -20° C. for use in experiments.
(§5) The stock cultures prepared above are thawed at 40° C. then incubated overnight at 37° C. and used to inoculate test samples. The test samples are inoculated with 2% by volume of the experimental culture of the bacterial strain under test. The samples are then mixed and incubated for 24 hours at the optimal temperature for the particular bacterial strain under evaluation. The pH is measured each two hours during an eight hour period and again at 24 hours. The rate of acidification of milk containing different concentrations of active micrococcin P1 can then be compared to the negative controls.
(§6) The results given in tables 4 and 5 below have been obtained from cows receiving various amounts of micrococcin P1 on three occasions, at 12 hour intervals.

[1] = test system: Streptococcus thermophilus; assay: as above; type: cell-based; conditions: 3 doses at 12 h
Description: as §1, §2, §3, §4, §5, §6

[2] = test system: pathogens causing bovine mastitis; assay: Activity against mastitis pathogens (general statement); type: cell-based
[3] = Hydrophobicity and water solubility

micrococcin P1
% of quarters positive (Staphylococcus aureus; 3 × 2 mg each 12 hours, day 0 after start of treatment): 100.0%
% of quarters positive (Staphylococcus aureus; 3 × 2 mg each 12 hours, day 1 after start of treatment): 62.5%
% of quarters positive (Staphylococcus aureus; 3 × 2 mg each 12 hours, day 2 after start of treatment): 12.5%
% of quarters positive (Staphylococcus aureus; 3 × 2 mg each 12 hours, day 3 after start of treatment): 50.0%
% of quarters positive (Staphylococcus aureus; 3 × 2 mg each 12 hours, day 4 after start of treatment): 50.0%
% of quarters positive (Staphylococcus aureus; 3 × 2 mg each 12 hours, day 5 after start of treatment): 62.5%
% of quarters positive (Staphylococcus aureus; 3 × 2 mg each 12 hours, day 7 after start of treatment): 62.5%
% of quarters positive (Staphylococcus aureus; 3 × 2 mg each 12 hours, day 8 after start of treatment): 75.0%
% of quarters positive (Staphylococcus aureus; 3 × 2 mg each 12 hours, day 9 after start of treatment): 75.0%
% of quarters positive (Staphylococcus aureus; 3 × 2 mg each 12 hours, day 10 after start of treatment): 75.0%
% of quarters positive (Staphylococcus aureus; 3 × 2 mg each 12 hours, day 11 after start of treatment): 87.5%
% of quarters positive (Staphylococcus aureus; 3 × 2 mg each 12 hours, day 12 after start of treatment): 75.0%
% of quarters positive (Staphylococcus aureus; 3 × 2 mg each 12 hours, day 14 after start of treatment): 87.5%
% of quarters positive (Staphylococcus aureus; 3 × 2 mg each 12 hours, day 15 after start of treatment): 62.5%
% of quarters positive (Staphylococcus aureus; 3 × 2 mg each 12 hours, day 16 after start of treatment): 75.0%
% of quarters positive (Staphylococcus aureus; 3 × 4 mg each 48 hours, day 0 after start of treatment): 100%
% of quarters positive (Staphylococcus aureus; 3 × 4 mg each 48 hours, day 1 after start of treatment): 22%
% of quarters positive (Staphylococcus aureus; 3 × 4 mg each 48 hours, day 2 after start of treatment): 22%
% of quarters positive (Staphylococcus aureus; 3 × 4 mg each 48 hours, day 3 after start of treatment): 11%
% of quarters positive (Staphylococcus aureus; 3 × 4 mg each 48 hours, day 4 after start of treatment): 11%
% of quarters positive (Staphylococcus aureus; 3 × 4 mg each 48 hours, day 5 after start of treatment): 0%
% of quarters positive (Staphylococcus aureus; 3 × 4 mg each 48 hours, day 7 after start of treatment): 0%
% of quarters positive (Staphylococcus aureus; 3 × 4 mg each 48 hours, day 8 after start of treatment): 22%
% of quarters positive (Staphylococcus aureus; 3 × 4 mg each 48 hours, day 9 after start of treatment): 22%
% of quarters positive (Staphylococcus aureus; 3 × 4 mg each 48 hours, day 10 after start of treatment): 22%
% of quarters positive (Staphylococcus aureus; 3 × 4 mg each 48 hours, day 11 after start of treatment): 22%
% of quarters positive (Staphylococcus aureus; 3 × 4 mg each 48 hours, day 12 after start of treatment): 22%
% of quarters positive (Staphylococcus aureus; 3 × 4 mg each 48 hours, day 14 after start of treatment): 44%
% of quarters positive (Staphylococcus aureus; 3 × 4 mg each 48 hours, day 15 after start of treatment): 44%
% of quarters positive (Staphylococcus aureus; 3 × 4 mg each 48 hours, day 16 after start of treatment): 22%
pH (acidification of milk) (Lactobacillus bulgaricus; 0.1 mg, 0 hours of growth): 6.48
pH (acidification of milk) (Lactobacillus bulgaricus; 0.1 mg, 2 hours of growth): 5.73
pH (acidification of milk) (Lactobacillus bulgaricus; 0.1 mg, 4 hours of growth): 4.29
pH (acidification of milk) (Lactobacillus bulgaricus; 0.1 mg, 6 hours of growth): 3.89
pH (acidification of milk) (Lactobacillus bulgaricus; 0.1 mg, 8 hours of growth): 3.72
pH (acidification of milk) (Lactobacillus bulgaricus; 0.1 mg, 24 hours of growth): 3.51
pH (acidification of milk) (Lactobacillus bulgaricus; 0.5 mg, 0 hours of growth): 6.53
pH (acidification of milk) (Lactobacillus bulgaricus; 0.5 mg, 2 hours of growth): 5.36
pH (acidification of milk) (Lactobacillus bulgaricus; 0.5 mg, 4 hours of growth): 4.21
pH (acidification of milk) (Lactobacillus bulgaricus; 0.5 mg, 6 hours of growth): 3.85
pH (acidification of milk) (Lactobacillus bulgaricus; 0.5 mg, 8 hours of growth): 3.72
pH (acidification of milk) (Lactobacillus bulgaricus; 0.5 mg, 24 hours of growth): 3.47
pH (acidification of milk) (Lactobacillus bulgaricus; 1 mg, 0 hours of growth): 6.56
pH (acidification of milk) (Lactobacillus bulgaricus; 1 mg, 2 hours of growth): 5.83
pH (acidification of milk) (Lactobacillus bulgaricus; 1 mg, 4 hours of growth): 4.34
pH (acidification of milk) (Lactobacillus bulgaricus; 1 mg, 6 hours of growth): 3.94
pH (acidification of milk) (Lactobacillus bulgaricus; 1 mg, 8 hours of growth): 3.75
pH (acidification of milk) (Lactobacillus bulgaricus; 1 mg, 24 hours of growth): 3.50
pH (acidification of milk) (Lactobacillus bulgaricus; 2 mg, 0 hours of growth): 6.57
pH (acidification of milk) (Lactobacillus bulgaricus; 2 mg, 2 hours of growth): 5.69
pH (acidification of milk) (Lactobacillus bulgaricus; 2 mg, 4 hours of growth): 4.34
pH (acidification of milk) (Lactobacillus bulgaricus; 2 mg, 6 hours of growth): 3.92
pH (acidification of milk) (Lactobacillus bulgaricus; 2 mg, 8 hours of growth): 3.75
pH (acidification of milk) (Lactobacillus bulgaricus; 2 mg, 24 hours of growth): 3.49
pH (acidification of milk) ([1]; 0.1 mg, 0 hours of growth): 6.60
pH (acidification of milk) ([1]; 0.1 mg, 2 hours of growth): 6.03
pH (acidification of milk) ([1]; 0.1 mg, 4 hours of growth): 4.47
pH (acidification of milk) ([1]; 0.1 mg, 6 hours of growth): 4.08
pH (acidification of milk) ([1]; 0.1 mg, 8 hours of growth): 3.94
pH (acidification of milk) ([1]; 0.1 mg, 24 hours of growth): 3.52
pH (acidification of milk) ([1]; 0.5 mg, 0 hours of growth): 6.61
pH (acidification of milk) ([1]; 0.5 mg, 2 hours of growth): 6.04
pH (acidification of milk) ([1]; 0.5 mg, 4 hours of growth): 4.50
pH (acidification of milk) ([1]; 0.5 mg, 6 hours of growth): 4.13
pH (acidification of milk) ([1]; 0.5 mg, 8 hours of growth): 4.00
pH (acidification of milk) ([1]; 0.5 mg, 24 hours of growth): 3.51
pH (acidification of milk) ([1]; 1 mg, 0 hours of growth): 6.67
pH (acidification of milk) ([1]; 1 mg, 2 hours of growth): 6.20
pH (acidification of milk) ([1]; 1 mg, 4 hours of growth): 4.53
pH (acidification of milk) ([1]; 1 mg, 6 hours of growth): 4.11
pH (acidification of milk) ([1]; 1 mg, 8 hours of growth): 3.94
pH (acidification of milk) ([1]; 1 mg, 24 hours of growth): 3.48
pH (acidification of milk) ([1]; 2 mg, 0 hours of growth): 6.72
pH (acidification of milk) ([1]; 2 mg, 2 hours of growth): 6.33
pH (acidification of milk) ([1]; 2 mg, 4 hours of growth): 4.74
pH (acidification of milk) ([1]; 2 mg, 6 hours of growth): 4.25
pH (acidification of milk) ([1]; 2 mg, 8 hours of growth): 4.06
pH (acidification of milk) ([1]; 2 mg, 24 hours of growth): 3.57
activity against pathogens causing bovine mastitis [2]: highly active against pathogens causing bovine mastitis
hydrophobicity [3]: highly hydrophobic
solubility in water [3]: poorly soluble in water
